Source: ChEMBL document CHEMBL1201862, “PubChem BioAssay data set” (2004)
The source made the active and inactive calls.

Key:
[1] = target: DNA dC->dU-editing enzyme APOBEC-3G (Homo sapiens, UniProt Q9HC16); test: Dose Response confirmation of small molecule APOBEC3G DNA Deaminase Inhibitors via a fluorescence-based single-stranded DNA deaminase assay. [Related pubchem assays (depositor defined):AID493012, AID493028]; format: functional
[2] = NIH3T3 cell viability loss – ATP luminescence, mouse fibroblasts, counter-screen, dose response (AID 2010); format: functional, cell-based;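 note: cells exposed to compound for about 90 hours before reading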
[3] = target: T1, Calpain-2 catalytic subunit (Sus scrofa, UniProt P43367); test: m-calpain protease blockers, concentration series – biochemical, fluorogenic peptide substrate, dose response (AID 1420); format: functional
T1 sequence (P43367 whole entry): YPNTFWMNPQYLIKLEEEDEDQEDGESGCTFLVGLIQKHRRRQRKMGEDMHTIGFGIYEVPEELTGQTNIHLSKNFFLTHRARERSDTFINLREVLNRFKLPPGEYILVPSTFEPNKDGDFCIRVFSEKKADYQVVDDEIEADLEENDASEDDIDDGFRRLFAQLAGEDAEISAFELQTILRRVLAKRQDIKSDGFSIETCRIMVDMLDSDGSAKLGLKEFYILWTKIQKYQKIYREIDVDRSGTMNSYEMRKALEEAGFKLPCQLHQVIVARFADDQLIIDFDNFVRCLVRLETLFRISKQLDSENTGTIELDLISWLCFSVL

[4] = Luminescence Cell-Based Dose Response HTS to Identify Inhibitors of 5'UTR Stem-Loop Driven Prion Protein mRNA Translation in H4 Neuroglioblastoma Cells. [Related pubchem assays: 1827 (Project Summary), 1813 (Primary HTS)]; format: functional
[5] = Trypanosoma cruzi growth suppression in host cells – NIH3T3 host cells, beta-gal luminescence, confirmation (AID 2044); format: functional, cell-based;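 note: intracellular parasites grown in NIH/3T3 mouse fibroblasts as host cells; luminescent beta-galactosidase reporter signal from transgenic T. cruzi replicating inside host cells; inhibitors lower the luminescence signal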
[6] = cells
[7] = alpha-synuclein stem-loop luciferase translation blockers – H4 neuroglioma cells, luminescence, confirmation (AID 1988); format: functional, cell-based
[8] = luciferase reporter signal suppression in cells – H4 neuroglioma cells, luminescence, dose response (AID 1990); format: functional, cell-based
[9] = target: Neurotensin receptor type 1 (Homo sapiens, UniProt P30989); format: functional;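 note: Image-based confirmatory dose-response assay measuring agonist activity at NTR1; NTR1-expressing U2OS osteosarcoma cells imaged for beta-arrestin GFP spot formation; agonist potency where compounds increase beta-arrestin recruitment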
[10] = NIH-3T3 fibroblast cytotoxicity, dose response, cytotoxicity control, cell-based, fluorescence, Alamar Blue, secondary assay (AID 2327); format: functional;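 note: NIH-3T3 mouse fibroblasts cultured with fluconazole at 8 µg/mL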
[11] = HEK-293T viability loss after treatment – luminescence, T-cell screen hits, cytotoxicity control for TCR NF-kB inhibitor project, dose response (AID 489026); format: functional, cell-based;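 note: cells exposed to compound about 14 hours before the viability readout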
[12] = target: T2, Voltage-gated N-type calcium channel alpha-1B subunit/Amyloid beta A4 precursor protein-binding family A member 1 (Homo sapiens, UniProt Q00975+Q02410); test: disruptors of Mint-PDZ/N-type channel peptide interaction – biochemical, HTRF, set 2, SAR follow-up (AID 434980); format: functional
[13] = target: T2, Voltage-gated N-type calcium channel alpha-1B subunit/Amyloid beta A4 precursor protein-binding family A member 1; test: disruptors of Mint-PDZ/N-type channel peptide interaction – biochemical, HTRF, SAR follow-up (AID 2489); format: functional
[14] = Fluorescence-based cell-based high throughput dose response assay for inhibitors of the interaction of nucleotide-binding oligomerization domain containing 2 (NOD2) and the receptor-interacting serine-threonine kinase 2 (RIPK2).; format: functional; conditions: Homo sapiens
[15] = Luminescence Cell-Based Dose Retest to Confirm Inhibitors of Cancer Stem Cells. [Related pubchem assays (depositor defined):AID2717, AID2721]; format: functional; conditions: Homo sapiens
[16] = target: Tumor necrosis factor (Homo sapiens, UniProt P01375); test: analog potency on TNFa NF-kB signaling – cell-based, revised, SAR follow-up (AID 2337); format: functional
[17] = target: Nucleotide-binding oligomerization domain-containing protein 1 (Homo sapiens, UniProt Q9Y239); test: blockers of NOD1 pathway activity – revised, SAR follow-up (AID 2333); format: functional
[18] = target: T3, Heat shock factor protein 1 (Mus musculus, UniProt P38532); test: decrease of HSF1-responsive luciferase luminescence – cell-based, NIH3T3, dose retest, confirmation (AID 2382); format: functional;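 note: NIH3T3 fibroblasts with HSF1-driven luciferase reporter stressed by proteasome inhibitor MG132; luminescence from HSF1-driven luciferase expression after 8 hours of MG132 stress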
T3 sequence (P38532 whole entry): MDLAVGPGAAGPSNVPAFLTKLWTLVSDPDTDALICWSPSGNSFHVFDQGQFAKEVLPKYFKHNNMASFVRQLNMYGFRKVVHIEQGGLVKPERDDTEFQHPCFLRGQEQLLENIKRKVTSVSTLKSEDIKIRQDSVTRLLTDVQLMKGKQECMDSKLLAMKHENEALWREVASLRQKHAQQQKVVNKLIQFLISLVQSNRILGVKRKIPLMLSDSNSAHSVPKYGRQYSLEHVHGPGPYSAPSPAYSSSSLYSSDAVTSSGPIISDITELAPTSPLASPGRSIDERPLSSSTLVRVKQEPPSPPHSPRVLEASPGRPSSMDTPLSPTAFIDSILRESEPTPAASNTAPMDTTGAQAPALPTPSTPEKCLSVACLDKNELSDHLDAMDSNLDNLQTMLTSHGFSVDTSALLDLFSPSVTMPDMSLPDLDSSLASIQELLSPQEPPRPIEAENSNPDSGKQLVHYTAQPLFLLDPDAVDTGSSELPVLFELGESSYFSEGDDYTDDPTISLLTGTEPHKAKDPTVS

[19] = target: Luciferin 4-monooxygenase (Photinus pyralis, UniProt P08659); test: inhibition of purified Photinus pyralis luciferase – biochemical, luminescence, dose response (AID 1891)
[20] = target: T4, Histone-lysine N-methyltransferase NSD2 (Homo sapiens, UniProt O96028); format: biochemical
T4 sequence (O96028 whole entry): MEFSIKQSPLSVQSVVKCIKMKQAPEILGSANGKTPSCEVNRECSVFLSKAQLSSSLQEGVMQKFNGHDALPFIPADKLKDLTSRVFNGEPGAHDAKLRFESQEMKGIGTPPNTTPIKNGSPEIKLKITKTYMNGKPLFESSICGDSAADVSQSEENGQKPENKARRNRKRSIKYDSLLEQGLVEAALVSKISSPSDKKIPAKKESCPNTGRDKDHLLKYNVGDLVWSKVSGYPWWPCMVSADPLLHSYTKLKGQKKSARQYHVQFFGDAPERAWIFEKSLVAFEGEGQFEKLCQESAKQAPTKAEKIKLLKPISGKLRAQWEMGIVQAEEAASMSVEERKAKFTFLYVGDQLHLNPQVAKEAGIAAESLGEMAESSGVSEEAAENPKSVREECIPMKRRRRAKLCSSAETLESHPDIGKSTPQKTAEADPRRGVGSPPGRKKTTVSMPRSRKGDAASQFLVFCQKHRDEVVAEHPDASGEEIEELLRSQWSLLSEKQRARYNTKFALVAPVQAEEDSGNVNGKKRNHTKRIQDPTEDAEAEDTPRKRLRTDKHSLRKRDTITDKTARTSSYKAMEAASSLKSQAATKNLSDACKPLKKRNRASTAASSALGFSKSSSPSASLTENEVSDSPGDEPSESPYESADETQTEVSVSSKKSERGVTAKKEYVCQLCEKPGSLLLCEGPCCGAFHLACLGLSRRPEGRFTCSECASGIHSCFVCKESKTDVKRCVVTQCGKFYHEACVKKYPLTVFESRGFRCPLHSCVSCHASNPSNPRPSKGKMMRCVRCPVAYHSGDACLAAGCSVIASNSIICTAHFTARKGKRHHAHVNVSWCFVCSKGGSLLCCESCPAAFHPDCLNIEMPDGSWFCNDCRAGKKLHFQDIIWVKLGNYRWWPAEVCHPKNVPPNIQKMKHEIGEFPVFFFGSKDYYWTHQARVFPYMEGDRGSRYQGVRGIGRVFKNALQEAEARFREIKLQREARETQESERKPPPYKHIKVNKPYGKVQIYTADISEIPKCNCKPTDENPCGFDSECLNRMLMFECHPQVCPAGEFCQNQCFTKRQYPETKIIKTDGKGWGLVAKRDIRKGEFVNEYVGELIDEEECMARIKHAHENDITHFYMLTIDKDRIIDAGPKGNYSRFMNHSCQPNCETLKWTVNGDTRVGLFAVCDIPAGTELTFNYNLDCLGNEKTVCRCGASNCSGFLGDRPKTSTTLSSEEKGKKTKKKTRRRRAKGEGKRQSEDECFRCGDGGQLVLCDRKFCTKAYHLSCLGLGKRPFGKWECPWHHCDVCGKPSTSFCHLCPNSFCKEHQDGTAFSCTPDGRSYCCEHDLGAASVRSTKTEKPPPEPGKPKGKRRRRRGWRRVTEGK

[21] = target: Eukaryotic translation initiation factor 4E (Mus musculus, UniProt P63073); test: blockers of eIF4G binding by eIF4E – biochemical, TR-FRET, dose response (AID 855); format: functional;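 note: potency for disrupting eIF4E binding to eIF4GI seen as loss of FRET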
[22] = target: T5, DNA repair protein RAD52 homolog (Homo sapiens, UniProt P43351); format: functional, biochemical
T5 sequence (P43351 whole entry): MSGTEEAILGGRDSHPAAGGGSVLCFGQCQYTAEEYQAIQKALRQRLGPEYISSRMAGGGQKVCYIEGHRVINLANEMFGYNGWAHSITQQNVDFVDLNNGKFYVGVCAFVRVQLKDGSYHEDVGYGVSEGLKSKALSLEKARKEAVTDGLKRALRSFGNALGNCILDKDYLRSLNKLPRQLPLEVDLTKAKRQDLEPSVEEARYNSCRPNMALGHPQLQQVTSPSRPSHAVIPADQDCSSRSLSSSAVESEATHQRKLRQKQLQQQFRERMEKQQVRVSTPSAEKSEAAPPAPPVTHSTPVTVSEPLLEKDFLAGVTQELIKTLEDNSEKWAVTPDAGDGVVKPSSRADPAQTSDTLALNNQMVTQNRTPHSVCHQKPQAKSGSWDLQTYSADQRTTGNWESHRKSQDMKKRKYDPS

[23] = target: Tyrosine-protein phosphatase non-receptor type 5 (Homo sapiens, UniProt P54829); test: PTPN5 enzyme inhibition – biochemical, fluorescence intensity, uHTS hits, confirmation (AID 602372); format: functional; conditions: read-out: IC50_Mean
[24] = target: Dual specificity protein phosphatase 3 (Homo sapiens, UniProt P51452); test: VHR phosphatase inhibition, dose response, selectivity assay for STEP inhibitor project, biochemical (AID 602374); format: functional; conditions: read-out: IC50_Mean
[25] = target: T6, Hexokinase HKDC1 (Homo sapiens, UniProt Q2TB90); test: inhibition of HKDC1 glucose phosphorylation – biochemical, W721R variant, dose response (AID 504729); format: functional
T6 sequence (Q2TB90 whole entry): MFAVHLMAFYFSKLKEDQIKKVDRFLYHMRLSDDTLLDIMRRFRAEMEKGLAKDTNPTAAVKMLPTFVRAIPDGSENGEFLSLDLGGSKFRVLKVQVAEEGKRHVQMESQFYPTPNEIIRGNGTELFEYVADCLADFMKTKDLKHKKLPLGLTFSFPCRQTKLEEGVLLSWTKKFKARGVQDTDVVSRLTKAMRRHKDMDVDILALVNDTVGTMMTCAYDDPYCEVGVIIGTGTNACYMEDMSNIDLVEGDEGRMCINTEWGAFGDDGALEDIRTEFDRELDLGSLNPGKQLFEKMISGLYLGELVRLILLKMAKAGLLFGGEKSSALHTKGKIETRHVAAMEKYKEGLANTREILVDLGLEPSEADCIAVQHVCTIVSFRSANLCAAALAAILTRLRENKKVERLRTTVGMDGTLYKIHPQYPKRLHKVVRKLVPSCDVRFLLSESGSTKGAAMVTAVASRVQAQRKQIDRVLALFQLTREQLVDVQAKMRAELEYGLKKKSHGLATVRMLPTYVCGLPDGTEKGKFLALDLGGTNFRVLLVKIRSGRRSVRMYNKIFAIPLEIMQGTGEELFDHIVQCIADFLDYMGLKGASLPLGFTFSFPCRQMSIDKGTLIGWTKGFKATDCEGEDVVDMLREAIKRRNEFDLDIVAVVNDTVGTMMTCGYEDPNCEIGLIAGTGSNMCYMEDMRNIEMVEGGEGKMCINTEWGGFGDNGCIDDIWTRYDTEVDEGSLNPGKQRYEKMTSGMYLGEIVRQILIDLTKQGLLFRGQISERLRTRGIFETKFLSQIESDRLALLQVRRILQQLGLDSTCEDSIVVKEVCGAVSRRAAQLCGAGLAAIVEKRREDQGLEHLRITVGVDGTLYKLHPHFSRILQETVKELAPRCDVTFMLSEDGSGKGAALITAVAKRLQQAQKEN

[26] = target: Tyrosine-protein phosphatase non-receptor type 11 (Homo sapiens, UniProt Q06124); test: PTPN11 enzyme inhibitors – biochemical, selectivity assay for STEP inhibitor project, dose response (AID 602367); format: functional; conditions: read-out: IC50_Mean
[27] = tested on: HEK293; test: cells; conditions: Homo sapiens;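 note: cells exposed to compound for 14 hours overnight before viability readout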
[28] = target: Polyadenylate-binding protein 1 (Homo sapiens, UniProt P11940); test: PABP inhibition in translation initiation, SAR follow-up (AID 435018); format: functional
[29] = target: Eukaryotic translation initiation factor 4H (Homo sapiens, UniProt Q15056); test: inhibitors of translation initiation factor eIF4H – SAR follow-up (AID 435011); format: functional

Sequence of Neurotensin receptor type 1 (P30989 whole entry): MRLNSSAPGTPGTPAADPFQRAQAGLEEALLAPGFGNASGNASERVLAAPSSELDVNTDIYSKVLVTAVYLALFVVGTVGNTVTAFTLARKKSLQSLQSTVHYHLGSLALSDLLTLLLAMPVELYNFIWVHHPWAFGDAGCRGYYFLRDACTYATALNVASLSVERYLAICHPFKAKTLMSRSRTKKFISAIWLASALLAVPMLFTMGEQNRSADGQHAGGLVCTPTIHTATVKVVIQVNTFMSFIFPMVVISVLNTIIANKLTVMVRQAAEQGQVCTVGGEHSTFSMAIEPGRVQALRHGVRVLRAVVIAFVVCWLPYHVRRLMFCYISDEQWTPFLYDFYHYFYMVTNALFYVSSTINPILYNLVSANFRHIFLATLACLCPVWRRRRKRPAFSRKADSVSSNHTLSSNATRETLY
Sequence of Nucleotide-binding oligomerization domain-containing protein 1 (Q9Y239 whole entry, the tested form may be a part): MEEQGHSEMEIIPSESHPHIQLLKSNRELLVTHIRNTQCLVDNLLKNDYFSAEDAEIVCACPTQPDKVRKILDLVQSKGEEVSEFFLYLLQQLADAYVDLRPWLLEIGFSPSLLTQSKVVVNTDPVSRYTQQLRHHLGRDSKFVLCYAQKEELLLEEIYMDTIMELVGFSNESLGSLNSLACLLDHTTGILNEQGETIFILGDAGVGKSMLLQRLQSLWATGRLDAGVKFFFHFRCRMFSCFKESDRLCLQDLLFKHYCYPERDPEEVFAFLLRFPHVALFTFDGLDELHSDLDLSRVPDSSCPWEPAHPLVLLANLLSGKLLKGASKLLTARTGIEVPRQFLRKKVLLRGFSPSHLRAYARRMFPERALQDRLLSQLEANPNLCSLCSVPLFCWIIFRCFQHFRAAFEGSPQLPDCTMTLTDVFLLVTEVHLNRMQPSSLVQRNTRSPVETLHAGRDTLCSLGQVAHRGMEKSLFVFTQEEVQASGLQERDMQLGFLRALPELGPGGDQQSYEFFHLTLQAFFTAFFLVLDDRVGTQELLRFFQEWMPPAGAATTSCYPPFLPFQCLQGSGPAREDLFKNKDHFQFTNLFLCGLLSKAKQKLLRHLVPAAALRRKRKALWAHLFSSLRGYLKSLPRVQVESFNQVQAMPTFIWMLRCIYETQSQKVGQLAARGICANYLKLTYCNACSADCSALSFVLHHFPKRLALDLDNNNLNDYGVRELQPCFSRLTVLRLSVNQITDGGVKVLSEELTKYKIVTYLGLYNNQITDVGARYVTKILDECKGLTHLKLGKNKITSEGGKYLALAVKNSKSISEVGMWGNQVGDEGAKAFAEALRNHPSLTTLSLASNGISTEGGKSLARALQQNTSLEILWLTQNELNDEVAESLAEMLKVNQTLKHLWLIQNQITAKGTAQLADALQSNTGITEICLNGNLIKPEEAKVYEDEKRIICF
Sequence of Tumor necrosis factor (P01375 whole entry, the tested form may be a part): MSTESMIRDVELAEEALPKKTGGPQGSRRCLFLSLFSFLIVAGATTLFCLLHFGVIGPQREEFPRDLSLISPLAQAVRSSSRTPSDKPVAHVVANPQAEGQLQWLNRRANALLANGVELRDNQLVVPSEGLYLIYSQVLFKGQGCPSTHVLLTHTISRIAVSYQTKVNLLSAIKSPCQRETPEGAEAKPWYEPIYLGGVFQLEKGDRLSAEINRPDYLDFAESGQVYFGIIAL
T2 sequence (Q00975 whole entry): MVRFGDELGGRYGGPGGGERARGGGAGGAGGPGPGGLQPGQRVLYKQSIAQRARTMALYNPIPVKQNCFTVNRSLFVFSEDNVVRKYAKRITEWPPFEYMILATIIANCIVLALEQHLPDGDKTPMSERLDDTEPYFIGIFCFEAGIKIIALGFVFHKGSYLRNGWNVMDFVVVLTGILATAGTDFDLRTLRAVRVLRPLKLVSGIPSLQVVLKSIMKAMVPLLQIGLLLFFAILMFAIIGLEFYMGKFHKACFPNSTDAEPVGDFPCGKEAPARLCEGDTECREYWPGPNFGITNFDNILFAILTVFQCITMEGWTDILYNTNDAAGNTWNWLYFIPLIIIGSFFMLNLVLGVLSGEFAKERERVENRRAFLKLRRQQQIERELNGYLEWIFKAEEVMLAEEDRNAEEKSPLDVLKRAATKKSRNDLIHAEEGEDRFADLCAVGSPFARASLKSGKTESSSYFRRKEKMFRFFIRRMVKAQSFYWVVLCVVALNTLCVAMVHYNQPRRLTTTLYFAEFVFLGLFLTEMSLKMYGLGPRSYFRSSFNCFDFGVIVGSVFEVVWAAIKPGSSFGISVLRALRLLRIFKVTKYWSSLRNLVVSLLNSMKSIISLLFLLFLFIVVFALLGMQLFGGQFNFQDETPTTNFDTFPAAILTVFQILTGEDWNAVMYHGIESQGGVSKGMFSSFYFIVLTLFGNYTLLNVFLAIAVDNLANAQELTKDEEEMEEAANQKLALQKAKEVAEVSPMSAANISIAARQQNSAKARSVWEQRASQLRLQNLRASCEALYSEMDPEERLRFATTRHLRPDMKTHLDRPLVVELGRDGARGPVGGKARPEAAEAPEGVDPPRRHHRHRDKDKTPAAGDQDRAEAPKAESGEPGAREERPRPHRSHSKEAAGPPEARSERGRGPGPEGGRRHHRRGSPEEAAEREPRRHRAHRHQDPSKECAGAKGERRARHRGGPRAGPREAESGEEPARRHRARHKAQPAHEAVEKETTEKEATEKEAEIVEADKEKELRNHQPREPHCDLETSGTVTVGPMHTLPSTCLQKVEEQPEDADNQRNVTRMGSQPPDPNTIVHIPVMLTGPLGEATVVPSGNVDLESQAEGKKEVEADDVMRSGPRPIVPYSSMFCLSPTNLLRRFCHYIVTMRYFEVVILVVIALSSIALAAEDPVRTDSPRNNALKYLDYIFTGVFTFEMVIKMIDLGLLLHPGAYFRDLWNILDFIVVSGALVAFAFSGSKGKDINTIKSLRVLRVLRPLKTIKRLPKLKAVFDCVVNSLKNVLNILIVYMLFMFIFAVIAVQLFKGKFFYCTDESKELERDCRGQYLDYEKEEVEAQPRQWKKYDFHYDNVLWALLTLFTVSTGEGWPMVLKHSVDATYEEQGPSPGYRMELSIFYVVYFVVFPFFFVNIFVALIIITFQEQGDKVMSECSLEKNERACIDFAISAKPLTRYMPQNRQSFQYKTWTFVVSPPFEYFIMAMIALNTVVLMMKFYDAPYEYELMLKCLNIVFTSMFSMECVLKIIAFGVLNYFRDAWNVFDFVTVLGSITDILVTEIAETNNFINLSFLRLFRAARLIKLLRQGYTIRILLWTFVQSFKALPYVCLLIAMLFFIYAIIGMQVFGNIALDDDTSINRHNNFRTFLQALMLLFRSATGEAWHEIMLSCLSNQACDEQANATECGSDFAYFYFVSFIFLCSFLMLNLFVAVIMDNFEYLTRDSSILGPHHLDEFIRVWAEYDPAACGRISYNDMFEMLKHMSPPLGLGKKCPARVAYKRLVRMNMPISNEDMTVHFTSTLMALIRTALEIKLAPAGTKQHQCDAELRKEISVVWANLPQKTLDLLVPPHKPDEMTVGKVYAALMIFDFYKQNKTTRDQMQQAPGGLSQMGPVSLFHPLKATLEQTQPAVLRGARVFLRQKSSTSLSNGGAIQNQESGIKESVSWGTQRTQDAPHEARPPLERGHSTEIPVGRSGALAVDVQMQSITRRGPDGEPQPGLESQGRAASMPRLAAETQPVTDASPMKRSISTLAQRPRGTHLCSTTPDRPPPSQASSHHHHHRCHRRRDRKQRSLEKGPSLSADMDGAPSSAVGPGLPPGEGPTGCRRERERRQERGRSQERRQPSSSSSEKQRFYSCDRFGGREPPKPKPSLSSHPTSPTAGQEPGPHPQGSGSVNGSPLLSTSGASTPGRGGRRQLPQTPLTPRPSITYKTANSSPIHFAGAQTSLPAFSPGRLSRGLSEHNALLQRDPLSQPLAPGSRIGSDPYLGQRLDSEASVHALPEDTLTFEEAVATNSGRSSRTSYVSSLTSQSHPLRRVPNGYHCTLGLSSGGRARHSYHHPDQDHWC
T2 sequence (Q02410 whole entry): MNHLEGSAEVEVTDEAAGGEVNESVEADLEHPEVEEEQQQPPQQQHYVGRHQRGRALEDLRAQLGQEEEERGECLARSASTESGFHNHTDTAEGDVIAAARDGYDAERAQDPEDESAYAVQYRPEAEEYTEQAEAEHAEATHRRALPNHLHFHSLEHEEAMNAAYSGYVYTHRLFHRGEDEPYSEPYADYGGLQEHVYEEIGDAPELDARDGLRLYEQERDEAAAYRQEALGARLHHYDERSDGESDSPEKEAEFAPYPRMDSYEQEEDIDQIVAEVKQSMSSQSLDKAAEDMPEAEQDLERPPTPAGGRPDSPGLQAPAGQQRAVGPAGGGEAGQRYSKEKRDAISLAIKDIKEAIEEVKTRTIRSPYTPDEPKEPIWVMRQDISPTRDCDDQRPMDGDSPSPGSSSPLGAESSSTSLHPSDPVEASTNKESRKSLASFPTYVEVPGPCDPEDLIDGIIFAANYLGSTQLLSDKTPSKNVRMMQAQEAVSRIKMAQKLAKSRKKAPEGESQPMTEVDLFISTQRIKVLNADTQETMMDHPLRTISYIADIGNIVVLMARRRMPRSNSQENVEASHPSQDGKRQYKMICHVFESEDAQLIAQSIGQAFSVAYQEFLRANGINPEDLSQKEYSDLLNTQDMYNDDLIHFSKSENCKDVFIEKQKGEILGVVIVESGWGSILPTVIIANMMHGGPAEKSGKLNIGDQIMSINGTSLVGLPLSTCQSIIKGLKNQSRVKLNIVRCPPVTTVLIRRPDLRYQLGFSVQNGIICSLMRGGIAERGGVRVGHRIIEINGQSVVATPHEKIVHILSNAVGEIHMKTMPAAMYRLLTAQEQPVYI
Sequence of Dual specificity protein phosphatase 3 (P51452 whole entry): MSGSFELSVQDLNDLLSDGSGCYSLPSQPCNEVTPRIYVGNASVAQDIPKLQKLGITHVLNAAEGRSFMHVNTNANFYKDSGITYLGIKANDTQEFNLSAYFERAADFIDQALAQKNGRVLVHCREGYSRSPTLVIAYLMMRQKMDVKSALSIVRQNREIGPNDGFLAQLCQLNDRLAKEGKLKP

CCNc1nc(NCC)n2c(SCC(=O)Nc3ccc(CC)cc3)nnc2n1
IC50 [1]: 75.6 µM (active)

CCCCCCCCCn1c2c(c(=N)c3c1CCC3)CCCC2
EC50 [2]: 3.44 µM (active)
IC50 [3]: 4.68 µM (active)
EC50 [4]: 6.11 µM (active)
EC50 [5]: < 0.1 µM (active)
EC50 [6]: 0.011 µM (active)
EC50 [7]: 3.52 µM (active)
EC50 [8]: 6.69 µM (active)
EC50 [9]: 6.65 µM (active)
EC50 [10]: 60.2 µM (active)
IC50 [11]: 42.1 µM (inactive)

O=C(c1cc(-c2ccco2)nc2ccccc12)N1CCC(c2ccccc2)C1 (configuration not stated)
IC50 [12]: 13.6 µM (active)
IC50 [13]: > 56.8 µM (inactive)

COc1ccc(C(=O)/C=C2/C(=O)Nc3ccccc32)c(OC)c1
IC50 [14]: 19.5 µM (inactive)
AC50 [15]: 5.87 µM (active)
EC50 [9]: 24.2 µM (inactive)

CC(C)(C)c1ccc(C(=O)ON=C(N)c2ccccc2)cc1
IC50 [16]: 1.51 µM (active)
IC50 [17]: 2.84 µM (active)
EC50 [18]: < 0.16 µM (active)
EC50 [19]: 5.63 µM (active)

N=C(NCc1ccc2c(c1)OCO2)NC(=O)c1ccccc1
AC50 [20]: 6.74 µM (active)
IC50 [21]: 17.3 µM (active)
AC50 [22]: 17.2 µM (active)
IC50 [23]: > 80 µM (inactive)
IC50 [24]: 24.1 µM (inactive)
IC50 [25]: 25.8 µM (inactive)
IC50 [26]: 19 µM (active)

CC(=O)N1c2ccc(S(=O)(=O)N3CCN(c4ccccc4)CC3)cc2CC1C (configuration not stated)
IC50 [16]: 14.1 µM (active)
IC50 [27]: > 20 µM (inactive)
IC50 [17]: 11.1 µM (active)

CCOC(=O)Cc1c(Sc2ccccc2)c2ccccc2n1C
IC50 [28]: > 100 µM (inactive)
IC50 [29]: > 100 µM (inactive)
